Source: US20060111350A1, “Solid forms of linezolid and processes for preparation thereof” (priority 2004, published 2006)

Tests used:
[1] = below about 85°; cited from earlier work
[2] = Stability and hygroscopicity of linezolid Form VI stored at 0-100% relative humidity; type: physicochemical
Method: The stability and hygroscopicity of linezolid Form VI was tested by storing it for 19 days at a relative humidity of between 0 and 100% at room temperature.

[3] = Thermal stability of crystal forms upon heating (Table 4)
[4] = Stability of linezolid Form X stored at 0-100% relative humidity; type: physicochemical
Method: The stability of linezolid Form X was tested by storing it for 8 days at a relative humidity of between 0 and 100% at room temperature.

[5] = 19 days, room temperature, relative humidity 80%
[6] = 19 days, room temperature, relative humidity 100%
[7] = 8 days, room temperature, relative humidity 100%

For `CC(=O)NC[C@H]1CN(c2ccc(N3CCOCC3)c(F)c2)C(=O)O1` [Form II], the “Relative stability of the crystal form” value [1] is listed as “most stable form”.

`CC(=O)NC[C@H]1CN(c2ccc(N3CCOCC3)c(F)c2)C(=O)O1` [Form VI, (S)—N-[[3-[3-Fluoro-4-(4-morpholinyl)phenyl]-2-oxo-5-oxazo-lidinyl]methyl]-acetamide] gave a Solvent content ([2]; 19 days, room temperature, relative humidity 0%) of 0.4%, a Solvent content ([2]; 19 days, room temperature, relative humidity 20%) of 0.4% and a Solvent content ([2]; 19 days, room temperature, relative humidity 40%) of 0.4%. For the same compound, the Solvent content ([2]; 19 days, room temperature, relative humidity 60%) was 0.3%, the “Crystal Form” value [2, 5] was “VI + Amorphous” and the Solvent content [2, 5] was 31.7%. For the same compound, the “Crystal Form” value [2, 6] was “Amorphous”, the Solvent content [2, 6] was 53.2% and the Solvent content ([2]; As is (before storage)) was 0.9%. For the same compound, the water content ([2]; As is (before storage)) was 0.7%, the Form conversion ([2]; at 80-100% RH) was “converts to Amorphous Linezolid” and the Stability and hygroscopicity ([2]; between 0-60% RH) was “stable and non-hygroscopic”. The Hygroscopicity ([2]; on high relative humidity) was “hygroscopic”.

With `CC(=O)NC[C@H]1CN(c2ccc(N3CCOCC3)c(F)c2)C(=O)O1` [Form TIII, (S)—N-[[3-[3-Fluoro-4-(4-morpholinyl)phenyl]-2-oxo-5-oxazo-lidinyl]methyl]-acetamide] the “Crystal form after heating” value ([3]; heating temp. 60 °C, listed as TIII) was “TIII” and the “Crystal form after heating” value ([3]; heating temp. 130 °C) was “TIII”.

In the case of `CC(=O)NC[C@H]1CN(c2ccc(N3CCOCC3)c(F)c2)C(=O)O1` [Form X, (S)—N-[[3-[3-Fluoro-4-(4-morpholinyl)phenyl]-2-oxo-5-oxazo-lidinyl]methyl]-acetamide], the Solvent content ([4]; 8 days, room temperature, relative humidity 0%) is reported as 1.6%, the Solvent content ([4]; 8 days, room temperature, relative humidity 20%) is reported as 1.5% and the Solvent content ([4]; 8 days, room temperature, relative humidity 40%) is reported as 1.4%. For the same compound, the Solvent content ([4]; 8 days, room temperature, relative humidity 60%) was 2.0%, the Solvent content ([4]; 8 days, room temperature, relative humidity 80%) was 2.4% and the “Crystal Form” value [4, 7] was “Form X + II”. The Solvent content [4, 7] was 0.7%, the Solvent content ([4]; As is (before storage)) was 1.9 (water content 1.9) % and the water content ([4]; As is (before storage)) was 1.9 (water content 1.9) %. For the same compound, the Form conversion ([4]; at 100% RH) was “some of Form X converts to Form II”, the Stability ([4]; between 0-80% RH) was “stable” and the “Crystal form after heating” value ([3]; heating temp. 60 °C, listed as X) was “Amorphous”.

In the case of `CC(=O)NC[C@H]1CN(c2ccc(N3CCOCC3)c(F)c2)C(=O)O1` [Form V, (S)—N-[[3-[3-Fluoro-4-(4-morpholinyl)phenyl]-2-oxo-5-oxazo-lidinyl]methyl]-acetamide], the “Thermal stability (transformation into other forms upon heating)” value ([3]; heating at about 60° C. to about 130° C.) is reported as “thermally stable”.
